Results as given in ChEMBL document CHEMBL1122041, “Molecular structures of 2,4-diaminopyrimidine antifolates with antineoplastic activity” (J Med Chem, 1982).

How the values were obtained:
[1] = molecular target: T1, Dihydrofolate reductase (Homo sapiens, UniProt P00374); experiment: Noncompetitive inhibition of mammalian Dihydrofolate reductase
T1 sequence (P00374 whole entry): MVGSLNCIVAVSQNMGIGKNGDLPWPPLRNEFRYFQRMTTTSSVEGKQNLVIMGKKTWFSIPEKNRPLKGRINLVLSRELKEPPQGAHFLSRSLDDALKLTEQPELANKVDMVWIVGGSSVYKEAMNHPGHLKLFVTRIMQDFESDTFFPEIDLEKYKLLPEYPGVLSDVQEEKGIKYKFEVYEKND

[2] = molecular target: T1, Dihydrofolate reductase; experiment: Competitive inhibition of mammalian dihydrofolate reductase
[3] = system: TA3; experiment: Evaluated for the concentration needed for 50% growth inhibition of mouse mammary adenocarcinoma cells (TA3) in culture; format: functional; conditions: TA3, read-out: ID50
[4] = system: TA3; experiment: Evaluated for the concentration needed for 50% growth inhibition of mouse mammary adenocarcinoma cells (TA3) in culture.; format: functional; conditions: TA3, read-out: ID50

Row | SMILES | IC50 [3] [nM] | IC50 [4] [nM] | other results
1 | Cc1nc(N)nc(N)c1-c1cccc2ccccc12 |  |  | Ki [1]: 56000 nM
2 | Cc1nc(N)nc(N)c1NC(=O)C12CC3CC(CC(C3)C1)C2 |  |  | Ki [2]: 9 nM
3 | Cc1nc(N)nc(N)c1-c1ccc2ccccc2c1 | 70 |  | 
4 | CN(Cc1cnc2nc(N)nc(N)c2n1)c1ccc(C(=O)N[C@@H](CCC(=O)O)C(=O)O)cc1 [METHOTREXATE] | 8 |  | 
5 | Cc1nc(N)nc(N)c1C12CC3CC(CC(C3)C1)C2 |  | 6 | 
6 | CCc1nc(N)nc(N)c1C12CC3CC(CC(C3)C1)C2 |  | 0.25 | 
